US5902794A (priority 1997, dated 1999)
pIC50: −log10 of the molar value.

How the values were obtained:
[1] = test system: R^II cAMP receptor protein (LS-174T); assay: photoaffinity labelling of R^II cAMP receptor protein, LS-174T; format: cell-based, human; details: 10 microM, 3 days; relative to control R^I
Experimental: (§1) M is marker proteins of known molecular weight.
(§2) The incubations were carried out at 23° C. for 60 minutes in 96-well immunoplates. The reaction mixtures were then irradiated for 30 seconds at 254 nm, placing a Mineralite UVS-11 hand lamp directly onto the plate. The samples were mixed with 25 microliters of 3× sample buffer (3% SDS, 15% beta-mercaptoethanol, 30 mM Tris, 30% glycerol, 1% bromophenol blue saturated solution), boiled for 3 minutes, and centrifuged at 700×g for five minutes. The samples containing 50-100 micrograms of protein were subjected to 0.05% SDS-12% PAGE. The gels were fixed, dried, and exposed to X-ray films overnight. The protein concentrations were determined by the method of Lowry et al., (J. Biol. Chem. 193: 265-275, 1951) with bovine serum albumin as standard.
(§3) The levels of the receptor proteins are expressed relative to the R^I level in the untreated control cells of MDA-MB-231 and LS-174T, which are each set equal to 1.0 O.D.; the scale was expanded to differentiate the lower intensity bands.

[2] = test system: R^I cAMP receptor protein (LS-174T); assay: photoaffinity labelling of R^I cAMP receptor protein, LS-174T; format: cell-based, human; details: 10 microM, 3 days; control 1.0
Experimental: as §1, §2, §3

R^I receptor = details: cited from earlier work
HL-60 = assay: growth inhibition of HL-60; format: cell-based, human
[3] = test system: R^II cAMP receptor protein (MDA-MB-231); assay: photoaffinity labelling of R^II cAMP receptor protein, MDA-MB-231; format: cell-based, human; details: 10 microM, 3 days; relative to control R^I
Experimental: as §1, §2, §3

MDA-MB-231 = assay: growth of MDA-MB-231 cells; format: cell-based; details: Homo sapiens, MDA-MB-231, 72 h; 10 microM, 3 days
Experimental: as §1
(§4) All breast cancer cell lines were grown in IMEM supplemented with 10% fetal bovine serum, 20 mM HEPES, penicillin-streptomycin, and extra glutamine. Colon carcinoma cell lines were grown in EMEM supplemented with 10% FBS, EMEM, NEAA, HEPES 20 mM, extra glutamine, and penicillin-streptomycin. The cells were grown at 37° C. in humidified incubators in an atmosphere of 5% CO2.
For cell growth experiments, 2-3×10^5 cells/60 mm dish were seeded, and 24 hours later (Day 0), the medium was removed, and fresh medium and the additives were added then and every 48 hours thereafter The compounds of the present invention were added using 100× concentrated stock solutions. At desired times, cell counts in duplicate were performed on a Coulter counter after harvesting the cells with gentle trypsinization.

[4] = test system: transplantable DMBA-1 and MNA-2 rat mammary carcinomas; assay: short-term assays with transplantable rat mammary carcinomas; format: in vivo; details: 10-mg pellet, within one week
c-myc protein = c-myc protein level, Western blotting (FIG. 9B); format: cell-based, human; details: 5 micromol/L, three days
Experimental: The cells were grown in suspension culture in RPMI 1640 medium supplemented with 10% fetal bovine serum, penicillin (50 U/ml), streptomycin ([…]), 10 mmol/L HEPES buffer, and extra glutamine. […] Surface antigen analysis of HL-60 cells was performed by flow cytometry using a panel of monoclonal antibodies reactive with either myeloid cells or monocytic cells. Terminal deoxynucleotidyl transferase (TdT) was assayed by an immunoperoxidase method using a TdT fluorescence kit. Western blotting of c-myc protein was performed using c-myc antibody 15206D11 (Scripps Clinic and Research Foundation, LaJolla, Calif.).
(§5) M marker proteins of known molecular weight. […] The resulting supernatants were used as cell lysates. […] ND=nondetectable.

NMU-2 = assay: growth of metastatic NMU-2 rat mammary carcinoma; format: in vivo; details: pellet with 10 mg cAMP analogue, day 7
Experimental: NMU2, a variant of primary hormoneresponsive NMU tumor,
hormoneindependent, transplantable, and metastatic.
(§6) 8Cl-cAMP and DBcAMP were given as a 20mg pellet consisting of 10 mg of […]

[5] = test system: R^I cAMP receptor protein (Molt-4); assay: R^I cAMP receptor protein in Molt-4 leukemic cells; format: cell-based, human; details: 5 micromol/L, three days
Description: as §5

[6] = test system: LS-174T colon cancer cells; assay: cell cycle analysis, LS-174T; format: cell-based, human; details: 8-Cl 10 μM, 3 days, two separate experiments
Experimental: DNA histograms were generated on FACS II by using the DNA intercalating dye propidium iodide as described by Braylan et al. (Cytometry 2: 337-343, 1982). The percentage of cells in each cycle phase was calculated by using a PDP-11/34 computer and software as described by Neckers et al. (Mol. Cell. Biol. 6: 4244-4250, 1986).
Breast (MCF-7, MDA-MB-231) and colon (LS-174T) cancer cells in
log phase (untreated control) and 3 days after treatment with
(5 μM) were analyzed for DNA content by flow cytometric analysis

HL-60 cells = assay: differentiation markers (surface antigens) in HL-60 cells; format: cell-based, human; details: three days
LS-174T = assay: growth of LS-174T human colon carcinoma in nude mice; format: in vivo; details: nude mouse, pellet with 10 mg cAMP analogue, day 7
Experimental: LS174T, human colon cancer line was s.c. grown in nude mice and a solid
tumor, transplantable, was obtained.
as §6

[7] = test system: LS-174T colon cancer line; assay: growth inhibition and release from inhibition, LS-174T (FIG. 3); format: cell-based, human
Experimental: 1×10^5 cells/60 mm dish were seeded, and 24 hours later (Day 0), the medium was removed and fresh medium and additives were added then and every 48 hours thereafter. […] The triplicate cell count for each experimental point never varied by more than 10%.
as §4

Nc1ncnc2c1nc(Cl)n2[C@@H]1O[C@@H]2COP(=O)(O)O[C@H]2[C@H]1O [8-Cl-cAMP]
R^II relative level [1]: 0.25 ± 0.02
R^I relative level [2]: 0.20 ± 0.02
site selectivity of binding, R^I (R^I receptor): binds to site 2
growth inhibition (footnote) (HL-60; 20 μmol/L): Seventy percent growth inhibition
pIC50 (HL-60; Homo sapiens, HL-60): 4.00
R^II relative level [3]: 0.15 ± 0.01
activity at 10 µM (MDA-MB-231): 45%
growth inhibition [4]: 40-50%
c-myc protein level, in words (c-myc protein): marked reduction of c-myc protein level
Change in mean tumor volume (NMU-2): 1.10 cm^3
R^I receptor protein, in words [5]: markedly decreased
% Cell population in G1 [6]: 63,53%
% Cell population in G2 M [6]: 22,25%
% Cell population in S [6]: 15,22%
activity at 10 µM ([6]; Homo sapiens, LS174T, 72 h, read-out: % Growth): 30.3%
markers of immature progenitor cells (My7, My9), in words (HL-60 cells): decrease in markers related to the immature progenitor cells
monocyte-specific surface antigens (MO2, OKM5), in words (HL-60 cells): marked increase in the expression
Change in mean tumor volume (LS-174T): 0.58 cm^3
Change in mean tumor volume (%) (LS-174T; none = 100): 60%
mechanism of growth inhibition / cell viability [7]: decrease in the rate of replication without affecting cell viability
cell growth during treatment ([7]; 8-Cl-cAMP 10 microM or 8-Cl-adenosine 5 microM): marked reduction in cell growth
growth after cessation of treatment ([7]; after removal of additives): resumed growth almost immediately
